The results in this text go back to patent publication US9663508B2, “Biaryl acyl-sulfonamide compounds as sodium channel inhibitors” (AMGEN INC., priority 2013, dated 2017).

pIC50: −log10 of the molar value.

Sequence of human Nav1.7 (Q15858 whole entry): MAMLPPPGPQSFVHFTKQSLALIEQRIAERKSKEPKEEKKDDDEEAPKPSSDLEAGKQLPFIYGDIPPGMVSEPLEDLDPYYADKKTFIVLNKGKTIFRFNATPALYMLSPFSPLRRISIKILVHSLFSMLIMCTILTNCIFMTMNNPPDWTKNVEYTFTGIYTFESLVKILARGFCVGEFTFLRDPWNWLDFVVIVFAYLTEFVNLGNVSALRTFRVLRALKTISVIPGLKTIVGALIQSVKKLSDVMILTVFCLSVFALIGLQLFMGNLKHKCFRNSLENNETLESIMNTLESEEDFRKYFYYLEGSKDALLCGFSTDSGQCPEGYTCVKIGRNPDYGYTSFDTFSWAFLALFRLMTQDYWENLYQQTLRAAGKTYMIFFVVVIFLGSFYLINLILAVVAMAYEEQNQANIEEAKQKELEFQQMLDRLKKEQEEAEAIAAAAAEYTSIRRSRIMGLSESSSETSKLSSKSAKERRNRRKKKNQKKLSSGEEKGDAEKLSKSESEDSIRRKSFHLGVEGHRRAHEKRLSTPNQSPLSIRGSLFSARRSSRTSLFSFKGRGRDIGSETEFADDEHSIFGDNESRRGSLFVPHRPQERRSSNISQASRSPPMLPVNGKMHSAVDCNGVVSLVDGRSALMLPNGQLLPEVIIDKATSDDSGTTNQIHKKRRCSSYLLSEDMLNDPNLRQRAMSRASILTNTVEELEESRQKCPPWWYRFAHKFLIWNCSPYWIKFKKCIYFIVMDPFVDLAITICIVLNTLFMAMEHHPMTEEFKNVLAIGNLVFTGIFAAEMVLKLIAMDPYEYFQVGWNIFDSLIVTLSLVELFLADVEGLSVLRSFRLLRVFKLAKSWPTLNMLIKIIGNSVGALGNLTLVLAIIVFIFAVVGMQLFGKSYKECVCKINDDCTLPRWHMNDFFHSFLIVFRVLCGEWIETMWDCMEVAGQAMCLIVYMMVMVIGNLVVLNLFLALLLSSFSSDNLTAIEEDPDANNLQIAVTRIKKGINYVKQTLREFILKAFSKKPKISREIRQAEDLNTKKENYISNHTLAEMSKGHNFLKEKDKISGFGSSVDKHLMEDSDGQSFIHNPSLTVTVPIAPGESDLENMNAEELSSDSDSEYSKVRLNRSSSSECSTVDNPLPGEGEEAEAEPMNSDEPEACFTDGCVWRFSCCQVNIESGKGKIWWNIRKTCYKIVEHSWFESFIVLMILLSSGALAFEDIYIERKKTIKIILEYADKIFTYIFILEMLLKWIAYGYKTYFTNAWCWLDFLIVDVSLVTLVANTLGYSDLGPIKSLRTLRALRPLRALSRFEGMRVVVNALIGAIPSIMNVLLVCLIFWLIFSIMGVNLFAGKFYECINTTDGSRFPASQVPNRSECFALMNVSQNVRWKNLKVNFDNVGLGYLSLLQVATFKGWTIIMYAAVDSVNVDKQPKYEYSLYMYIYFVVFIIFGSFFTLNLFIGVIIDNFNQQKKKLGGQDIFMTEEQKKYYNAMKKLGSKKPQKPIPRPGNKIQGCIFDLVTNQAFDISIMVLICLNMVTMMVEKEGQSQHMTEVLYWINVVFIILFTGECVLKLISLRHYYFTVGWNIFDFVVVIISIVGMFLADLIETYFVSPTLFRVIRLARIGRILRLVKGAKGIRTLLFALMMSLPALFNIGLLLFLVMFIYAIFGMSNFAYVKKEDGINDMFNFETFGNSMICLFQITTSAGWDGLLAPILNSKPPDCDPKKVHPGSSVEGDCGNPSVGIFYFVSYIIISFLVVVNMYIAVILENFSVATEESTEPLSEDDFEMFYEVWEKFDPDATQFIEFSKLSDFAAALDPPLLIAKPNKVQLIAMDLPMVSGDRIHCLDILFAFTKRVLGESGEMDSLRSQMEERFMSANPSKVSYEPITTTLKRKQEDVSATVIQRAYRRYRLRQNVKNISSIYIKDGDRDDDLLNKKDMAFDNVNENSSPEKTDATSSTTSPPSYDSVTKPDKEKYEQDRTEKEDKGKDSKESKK

The assay addresses human Nav1.7 (Homo sapiens (Human), UniProt Q15858). The experiment in a line: Nav 1.7 in vitro PatchXpress (PX) assay. The class given is cell-based. As to conditions: in-vitro Nav 1.7 PX data.
Method: HEK 293 cells stably transfected with human Nav1.7 were recorded in whole cell voltage clamp mode with the PatchXpress automated electrophysiology system (Molecular Devices, LLC, Sunnyvale, Calif.). Compound effects were measured on a partially inactivated state of the sodium channel. Cells were clamped to a holding potential yielding 20 to 50% inactivation. To elicit sodium current, channels were activated by pulsing to −10 mV for 20 msec. This voltage protocol was repeated at a rate of 0.1 Hz throughout the experiment. A single concentration of test compound was applied to cells for a duration of 3 minutes. Peak sodium current was measured at the end of the compound addition period to determine percent inhibition. Three to five cells were tested per concentration, and IC50 curves were fitted to percent inhibition as a function of concentration.
For the compound `COc1cc(C(=O)NS(C)(=O)=O)c(F)cc1-c1cnc(Oc2c(Cl)cccc2Cl)c(Cl)c1` [Example 764, 4-(5-chloro-6-(2,6-dichlorophenoxy)-3-pyridinyl)-2-fluoro-5-methoxy-N-(methylsulfonyl)benzamide], the pIC50 is 7.44.
With `COc1cc(C(=O)NS(C)(=O)=O)c(F)cc1-c1cnc(Oc2cccc(Cl)c2)c(Cl)c1` [Example 765, 4-(5-chloro-6-(3-chlorophenoxy)-3-pyridinyl)-2-fluoro-5-methoxy-N-(methylsulfonyl)benzamide] the figure was 7.07.
Compound `COc1cc(C(=O)NS(C)(=O)=O)c(F)cc1-c1cnc(Oc2c(F)ccc(F)c2F)c(Cl)c1` [Example 766, 4-(5-chloro-6-(2,3,6-trifluorophenoxy)-3-pyridinyl)-2-fluoro-5-methoxy-N-(methylsulfonyl)benzamide] showed a pIC50 of 7.02.
Compound `CC[C@H](Oc1ncc(-c2cc(F)c(C(=O)NS(C)(=O)=O)cc2OC)cc1Cl)C(F)(F)F` [Example 768, 4-(5-chloro-6-(((1S)-1-(trifluoromethyl)propyl)oxy)-3-pyridinyl)-2-fluoro-5-methoxy-N-(methylsulfonyl)benzamide] showed a pIC50 of 7.02.
The compound `COc1cc(C(=O)NS(C)(=O)=O)c(F)cc1-c1cnc(O[C@@H]2CC[C@@H]2C)c(Cl)c1` [Example 770, 4-(5-chloro-6-(((1R,2S)-2-methylcyclobutyl)oxy)-3-pyridinyl)-2-fluoro-5-methoxy-N-(methylsulfonyl)benzamide] showed a pIC50 of 6.96.
The figure for `COc1cc(C(=O)NS(C)(=O)=O)c(F)cc1-c1cnc(N[C@H]2CC23CCCC3)c(Cl)c1` [Example 771, 4-(5-chloro-6-((1S)-spiro[2.4]hept-1-ylamino)-3-pyridinyl)-2-fluoro-5-methoxy-N-(methylsulfonyl)benzamide] is 7.06; for `COc1cc(C(=O)NS(=O)(=O)N2CCC2)ccc1-c1cnc(Oc2cc(Cl)cc(Cl)c2)c(Cl)c1` [Example 773, N-(1-azetidinylsulfonyl)-4-(5-chloro-6-(3,5-dichlorophenoxy)-3-pyridinyl)-3-methoxybenzamide] it is 6.94; for `Cc1cc(Cl)cc(Cl)c1Oc1ncc(-c2ccc(C(=O)NS(C)(=O)=O)cc2Cl)cc1Cl` [Example 776, 3-chloro-4-(5-chloro-6-(2,4-dichloro-6-methylphenoxy)-3-pyridinyl)-N-(methylsulfonyl)benzamide] it is 7.46.
With `CS(=O)(=O)NC(=O)c1ccc(-c2cnc(Oc3cc(Cl)cc(Cl)c3)c(Cl)c2)c(Cl)c1` [Example 777, 3-chloro-4-(5-chloro-6-(3,5-dichlorophenoxy)-3-pyridinyl)-N-(methylsulfonyl)benzamide] the figure was 7.40; with `CS(=O)(=O)NC(=O)c1ccc(-c2cnc(Oc3c(F)ccc(F)c3F)c(Cl)c2)c(Cl)c1` [Example 778, 3-chloro-4-(5-chloro-6-(2,3,6-trifluorophenoxy)-3-pyridinyl)-N-(methylsulfonyl)benzamide], 7.13; with `CCOc1cc(C(=O)NS(C)(=O)=O)c(F)cc1-c1cnc(Oc2cccc(Cl)c2C)c(Cl)c1` [Example 779, 4-(5-chloro-6-(3-chloro-2-methylphenoxy)-3-pyridinyl)-5-ethoxy-2-fluoro-N-(methylsulfonyl)benzamide], 7.02.
The figure for `Cc1c(Cl)cccc1Oc1ncc(-c2cc(F)c(C(=O)NS(C)(=O)=O)cc2OC(F)F)cc1Cl` [Example 780, 4-(5-chloro-6-(3-chloro-2-methylphenoxy)-3-pyridinyl)-5-(difluoromethoxy)-2-fluoro-N-(methylsulfonyl)benzamide] is 7.35; for `CS(=O)(=O)NC(=O)c1cc(OC(F)F)c(-c2cnc(OC3CCC3)c(Cl)c2)cc1F` [Example 781, 4-(5-chloro-6-(cyclobutyloxy)-3-pyridinyl)-5-(difluoromethoxy)-2-fluoro-N-(methylsulfonyl)benzamide] it is 6.84.
As to `Cc1cc(Cl)cc(Cl)c1Oc1ncc(-c2cc(F)c(C(=O)NS(C)(=O)=O)cc2OC(F)F)cc1Cl` [Example 782, 4-(5-chloro-6-(2,4-dichloro-6-methylphenoxy)-3-pyridinyl)-5-(difluoromethoxy)-2-fluoro-N-(methylsulfonyl)benzamide], the pIC50 was 7.79.
With `CS(=O)(=O)NC(=O)c1cc(OC(F)F)c(-c2cnc(O[C@@H]3C[C@H]4CC[C@H]3C4)c(Cl)c2)cc1F` [Example 783, 4-(6-((1S,2R,4S)-bicyclo[2.2.1]hept-2-yloxy)-5-chloro-3-pyridinyl)-5-(difluoromethoxy)-2-fluoro-N-(methylsulfonyl)benzamide] the figure was 7.14; with `CS(=O)(=O)NC(=O)c1cc(OC(F)F)c(-c2cnc(Oc3cc(Cl)cc(Cl)c3)c(Cl)c2)cc1F` [Example 784, 4-(5-chloro-6-(3,5-dichlorophenoxy)-3-pyridinyl)-5-(difluoromethoxy)-2-fluoro-N-(methylsulfonyl)benzamide], 7.85; with `CS(=O)(=O)NC(=O)c1cc(OC(F)F)c(-c2cnc(Oc3c(F)ccc(F)c3F)c(Cl)c2)cc1F` [Example 785, 4-(5-chloro-6-(2,3,6-trifluorophenoxy)-3-pyridinyl)-5-(difluoromethoxy)-2-fluoro-N-(methylsulfonyl)benzamide], 7.14.
With `CS(=O)(=O)NC(=O)c1cc(OC(F)F)c(-c2cnc(OCc3ccc(Cl)cc3)c(Cl)c2)cc1F` [Example 786, 4-(5-chloro-6-((4-chlorobenzyl)oxy)-3-pyridinyl)-5-(difluoromethoxy)-2-fluoro-N-(methylsulfonyl)benzamide], the pIC50 was 7.26.
The figure for `Cc1cc(Cl)cc(Cl)c1Oc1ncc(-c2cc(F)c(C(=O)NS(C)(=O)=O)cc2F)cc1C#N` [Example 787, 4-(5-cyano-6-(2,4-dichloro-6-methylphenoxy)pyridin-3-yl)-2,5-difluoro-N-(methylsulfonyl)benzamide] is 7.10.
As for `CCS(=O)(=O)NC(=O)c1ccc(-c2cnc(Oc3cccc(Cl)c3C)c(Cl)c2)c(OC)c1` [Example 789, 4-(5-chloro-6-(3-chloro-2-methylphenoxy)-3-pyridinyl)-N-(ethylsulfonyl)-3-methoxybenzamide], the pIC50 is 7.17.
With `CCS(=O)(=O)NC(=O)c1ccc(-c2cnc(OC3CCC3)c(Cl)c2)c(OC)c1` [Example 790, 4-(5-chloro-6-(cyclobutyloxy)-3-pyridinyl)-N-(ethylsulfonyl)-3-methoxybenzamide] the figure was 6.91; with `CCS(=O)(=O)NC(=O)c1ccc(-c2cnc(Oc3c(F)ccc(F)c3F)c(Cl)c2)c(OC)c1` [Example 791, 4-(5-chloro-6-(2,3,6-trifluorophenoxy)-3-pyridinyl)-N-(ethylsulfonyl)-3-methoxybenzamide], 7.40; with `CCS(=O)(=O)NC(=O)c1ccc(-c2cnc(O[C@H]3C[C@H]4CC[C@@H]3C4)c(Cl)c2)c(OC)c1` [Example 792, 4-(6-((1R,2S,4S)-bicyclo[2.2.1]hept-2-yloxy)-5-chloro-3-pyridinyl)-N-(ethylsulfonyl)-3-methoxybenzamide], 7.07.
The figure for `COc1cc(C(=O)NS(C)(=O)=O)ccc1-c1cnc(Cc2ccc(Cl)c(Cl)c2)c(Cl)c1` [Example 793, 4-(5-chloro-6-(3,4-dichlorobenzyl)pyridin-3-yl)-3-methoxy-N-(methylsulfonyl)benzamide] is 7.30.
The figure for `Cc1cc(Cl)cc(Cl)c1Oc1ncc(-c2ccc(C(=O)NS(C)(=O)=O)cc2Br)cc1Cl` [Example 794, 3-bromo-4-(5-chloro-6-(2,4-dichloro-6-methylphenoxy)-3-pyridinyl)-N-(methylsulfonyl)benzamide] is 7.56.
Turning to `Cc1cc(C(=O)NS(=O)(=O)c2nccs2)c(F)cc1-c1cnc(OC2CCC2)c(Cl)c1` [Example 795, 4-(5-chloro-6-(cyclobutyloxy)-3-pyridinyl)-2-fluoro-5-methyl-N-(1,3-thiazol-2-ylsulfonyl)benzamide], the pIC50 is 7.24.
The figure for `Cc1cc(C(=O)NS(=O)(=O)C2CC2)c(F)cc1-c1cnc(OC2CCC2)c(Cl)c1` [Example 797, 4-(5-chloro-6-(cyclobutyloxy)-3-pyridinyl)-N-(cyclopropylsulfonyl)-2-fluoro-5-methylbenzamide] is 7.01; for `CS(=O)(=O)NC(=O)c1cc(C2CC2)c(-c2cnc(OC3CCC3)c(Cl)c2)cc1F` [Example 802, 4-(5-chloro-6-cyclobutoxypyridin-3-yl)-5-cyclopropyl-2-fluoro-N-(methylsulfonyl)benzamide] it is 6.87; for `Cc1cc(C(=O)NS(C)(=O)=O)c(F)cc1-c1ccc(Cl)c(C(F)(F)F)c1` [Example 806, 4′-Chloro-5-Fluoro-2-Methyl-N-(Methylsulfonyl)-3′-(Trifluoromethyl)-4-Biphenylcarboxamide] it is 6.21.
With `Cc1cc(C(=O)NS(C)(=O)=O)c(F)cc1-c1ccc(C(F)(F)F)c(Cl)c1` [Example 807, 3′-chloro-5-fluoro-2-methyl-N-(methylsulfonyl)-4′-(trifluoromethyl)-4-biphenylcarboxamide] the figure was 6.38; with `Cc1cc(C(=O)NS(C)(=O)=O)c(F)cc1-c1cnc(OCC(F)F)c(Cl)c1` [Example 808, 4-(5-chloro-6-(2,2-difluoroethoxy)-3-pyridinyl)-2-fluoro-5-methyl-N-(methylsulfonyl)benzamide], 5.61; with `Cc1cc(C(=O)NS(C)(=O)=O)c(F)cc1-c1ccc2c(c1)OC(F)(F)O2` [Example 809, 4-(2,2-difluoro-1,3-benzodioxol-5-yl)-2-fluoro-5-methyl-N-(methylsulfonyl)benzamide], 6.19.
With `Cc1cc(C(=O)NS(C)(=O)=O)c(F)cc1-c1ccc(OCC(F)(F)F)cc1` [Example 810, 5-fluoro-2-methyl-N-(methylsulfonyl)-4′-(2,2,2-trifluoroethoxy)-4-biphenylcarboxamide] the figure was 5.40.
`Cc1cc(C(=O)NS(C)(=O)=O)c(F)cc1-c1ccc(OC(F)(F)C(F)F)cc1` [Example 811, 5-fluoro-2-methyl-N-(methylsulfonyl)-4′-(1,1,2,2-tetrafluoroethoxy)-4-biphenylcarboxamide] had a pIC50 of 5.80.

For orientation: pIC50 means the IC50 on a negative log10 scale, so that one unit is a factor of ten.
